{"source": "patent US20130165734A1", "about": "“TIME-DOMAIN TRANSDUCTION SIGNALS AND METHODS OF THEIR PRODUCTION AND USE” (Nativis, Inc., priority 2009, published 2013)", "key": {"tubulin [1]": {"system": "tubulin", "assay": "in vitro tubulin polymerization (aggregation) assay, absorbance at 340 nm", "format": "biochemical", "conditions": "4 μM taxol, tubulin 1.5 mg/ml in GPEM buffer, first ten minutes", "method": "The M2(3) and a number of other high-score signals were tested for their ability to stabilize tubulin polymerization, employing the transduction system described above with reference to FIG. 7A. […] This assay has been described, for example, in Shelanski, M. L., Gaskin, F. and Cantor, C. R. (1973). Microtubule assembly in the absence of added nucleotides. Proc. Natl. Acad. Sci. U.S.A. 70, 765-768; and Lee, J. C. and Timasheff, S. N. (1977). In vitro reconstitution of calf brain microtubules: effects of solution variable. Biochemistry, 16, 1754-1762.\nThe M2(3) and a number of other high-score taxol signals were tested for their ability to stabilize tubulin polymerization. […] Change in optical absorption at 340 nm was measured continuously for each sample, and the OD340 data was used to calculate a rate of tubulin polymerization (dA/minute at 340 nm) at each one minute interval during the transduction study.\nThe results of the study, expressed as rate or tubulin polymerization over the first ten minutes of the study, are shown in FIGS. 9A and 9B."}, "tubulin [2]": {"system": "tubulin", "assay": "electron microscopy of tubulin assay samples", "format": "biochemical", "conditions": "10 minutes exposure to 4 μM taxol", "text": "The assay samples from above were examined by electron microscopy to confirm that the nature of the microtubule polymers formed in the assay, either by the addition of taxol or the taxol-derived time-domain signal. FIGS. 10A-10F are photo electron micrographs, taken at 21,000× and 52,000× magnification, of a tubulin suspension for untreated control (FIGS. 10A and 10B), cremaphore alone, FIGS. 10C, 10D), and the tubulin suspension exposed to the magnetic field of a white-noise signal. Each sample was allowed to incubate in the system cell for 10 minutes under the conditions described, then placed on ice and immediately after cooling, placed on an EM grid and fixed for with stain. No evidence of significant tubulin formation is observed in any of these samples.\nFIGS. 12A-12D show the morphology of the tubulin assay samples after 10 minutes exposure to 4 μM taxol, where the samples were cooled after 10 minutes and prepared for EM as above.\nFIGS. 13A-13D show the morphology of the tubulin assay samples after 10 minutes exposure to the above M2(3) taxol-derived time-domain signal. 4 μM taxol, where the samples were cooled after 10 minutes and prepared for EM as above."}, "[3]": {"assay": "observation of side effects in treated tumor-bearing animals", "format": "in vivo, mice", "conditions": "animals treated with taxol; preliminary observations", "text": "Another potential advantage of signal therapy over the conventional drug therapy is the potential for reduced side effects."}, "U87 glioblastoma cells": {"system": "U87 glioblastoma cells", "assay": "intracranial U87 glioblastoma tumor study in mice", "format": "in vivo", "conditions": "tumor-bearing animals treated with taxol compound over the same 23 day period"}}, "data": [{"smiles": "CC(=O)O[C@H]1C(=O)[C@@]2(C)[C@H]([C@H](OC(=O)c3ccccc3)[C@]3(O)C[C@H](OC(=O)[C@H](O)[C@@H](NC(=O)c4ccccc4)c4ccccc4)C(C)=C1C3(C)C)[C@]1(OC(C)=O)CO[C@@H]1C[C@@H]2O", "note": "[taxol, taxol (paclitaxel)]", "values": [{"measurement": "increase in absorbance (tubulin polymerization) over the tubulin control", "setting": "tubulin [1]", "value": "increased more than twofold"}, {"measurement": "morphology of tubulin assay samples (EM)", "setting": "tubulin [2]", "value": "A number of well-developed microtubular structures, including multi-lamellar structures are seen"}, {"measurement": "side effects (activity, behavior, appetite)", "setting": "[3]", "value": "showed the expected signs of lethargy and loss of appetite"}, {"measurement": "tumor volume result compared with signal treatment", "setting": "U87 glioblastoma cells", "value": "A similar result was seen"}]}]}
